Test results from paper PMC11864979, “First-in-class ultralong-target-residence-time p38α inhibitors as a mitosis-targeted therapy for colorectal cancer” (Nature Cancer, 2025).
Where two headings read alike, the source gives them in different places.

Key:
Experiment in all cases: selectivity profiling in a panel of 340 wild-type kinases (Reaction Biology Europe)
Type in all cases: binding
340 wild-type kinases [1] = target: T1, 340 wild-type kinases (Homo sapiens, UniProt P41279)
T1 construct: purchased Reaction Biology Europe

340 wild-type kinases [2] = target: T2, 340 wild-type kinases (Homo sapiens, UniProt P53778)
T2 construct: purchased Reaction Biology Europe
T2 sequence (P53778 1-367): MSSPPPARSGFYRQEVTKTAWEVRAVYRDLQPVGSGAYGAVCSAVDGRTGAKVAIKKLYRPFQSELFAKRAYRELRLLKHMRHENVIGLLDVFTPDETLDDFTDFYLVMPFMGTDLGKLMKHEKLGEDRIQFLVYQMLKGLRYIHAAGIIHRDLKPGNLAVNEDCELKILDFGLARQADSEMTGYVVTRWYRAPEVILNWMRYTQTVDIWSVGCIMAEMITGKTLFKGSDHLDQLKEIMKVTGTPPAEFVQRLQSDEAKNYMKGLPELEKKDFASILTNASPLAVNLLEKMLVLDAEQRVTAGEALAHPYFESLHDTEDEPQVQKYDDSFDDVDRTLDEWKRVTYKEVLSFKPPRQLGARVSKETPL

340 wild-type kinases [3] = target: T3, 340 wild-type kinases (Homo sapiens, UniProt P78362)
T3 construct: purchased Reaction Biology Europe

340 wild-type kinases [4] = target: T4, 340 wild-type kinases (Homo sapiens, UniProt Q16539)
T4 construct: purchased Reaction Biology Europe

340 wild-type kinases [5] = target: T5, 340 wild-type kinases (Homo sapiens, UniProt Q8IU85)
T5 construct: purchased Reaction Biology Europe

340 wild-type kinases [6] = target: T6, 340 wild-type kinases (Homo sapiens, UniProt Q8IWQ3)
T6 construct: purchased Reaction Biology Europe
T6 sequence (Q8IWQ3 1-736): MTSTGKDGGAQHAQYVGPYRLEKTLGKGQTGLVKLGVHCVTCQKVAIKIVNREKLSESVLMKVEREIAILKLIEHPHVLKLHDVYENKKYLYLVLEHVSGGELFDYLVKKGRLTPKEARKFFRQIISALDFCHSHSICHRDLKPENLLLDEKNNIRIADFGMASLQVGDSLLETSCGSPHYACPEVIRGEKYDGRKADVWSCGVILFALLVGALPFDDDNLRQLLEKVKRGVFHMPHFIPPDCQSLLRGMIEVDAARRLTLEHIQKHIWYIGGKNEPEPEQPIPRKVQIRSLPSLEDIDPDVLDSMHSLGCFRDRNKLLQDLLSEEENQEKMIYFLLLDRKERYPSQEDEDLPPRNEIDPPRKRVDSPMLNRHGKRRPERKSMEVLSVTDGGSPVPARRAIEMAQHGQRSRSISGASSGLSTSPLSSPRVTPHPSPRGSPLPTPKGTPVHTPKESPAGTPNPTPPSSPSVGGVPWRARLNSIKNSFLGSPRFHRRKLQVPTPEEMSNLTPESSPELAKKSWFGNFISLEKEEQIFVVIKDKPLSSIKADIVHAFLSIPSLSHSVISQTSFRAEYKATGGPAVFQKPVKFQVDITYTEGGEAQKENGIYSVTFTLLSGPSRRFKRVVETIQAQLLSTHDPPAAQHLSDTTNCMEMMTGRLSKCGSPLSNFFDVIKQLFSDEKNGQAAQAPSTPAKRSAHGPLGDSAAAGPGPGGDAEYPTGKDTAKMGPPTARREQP

340 wild-type kinases [7] = target: T7, 340 wild-type kinases (Homo sapiens, UniProt Q9UQB9)
T7 construct: purchased Reaction Biology Europe
T7 sequence (Q9UQB9 1-309): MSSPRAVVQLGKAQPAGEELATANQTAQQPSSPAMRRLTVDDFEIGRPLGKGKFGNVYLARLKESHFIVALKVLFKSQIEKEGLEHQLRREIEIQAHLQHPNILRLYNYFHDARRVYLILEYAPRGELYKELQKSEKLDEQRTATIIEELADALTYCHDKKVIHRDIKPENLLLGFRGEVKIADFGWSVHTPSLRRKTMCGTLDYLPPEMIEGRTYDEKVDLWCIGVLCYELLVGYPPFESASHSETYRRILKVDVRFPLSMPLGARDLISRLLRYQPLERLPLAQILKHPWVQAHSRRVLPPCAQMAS

340 wild-type kinases [8] = target: T8, 340 wild-type kinases (Homo sapiens, UniProt Q9Y2U5)
T8 construct: purchased Reaction Biology Europe
T8 sequence (Q9Y2U5 1-619): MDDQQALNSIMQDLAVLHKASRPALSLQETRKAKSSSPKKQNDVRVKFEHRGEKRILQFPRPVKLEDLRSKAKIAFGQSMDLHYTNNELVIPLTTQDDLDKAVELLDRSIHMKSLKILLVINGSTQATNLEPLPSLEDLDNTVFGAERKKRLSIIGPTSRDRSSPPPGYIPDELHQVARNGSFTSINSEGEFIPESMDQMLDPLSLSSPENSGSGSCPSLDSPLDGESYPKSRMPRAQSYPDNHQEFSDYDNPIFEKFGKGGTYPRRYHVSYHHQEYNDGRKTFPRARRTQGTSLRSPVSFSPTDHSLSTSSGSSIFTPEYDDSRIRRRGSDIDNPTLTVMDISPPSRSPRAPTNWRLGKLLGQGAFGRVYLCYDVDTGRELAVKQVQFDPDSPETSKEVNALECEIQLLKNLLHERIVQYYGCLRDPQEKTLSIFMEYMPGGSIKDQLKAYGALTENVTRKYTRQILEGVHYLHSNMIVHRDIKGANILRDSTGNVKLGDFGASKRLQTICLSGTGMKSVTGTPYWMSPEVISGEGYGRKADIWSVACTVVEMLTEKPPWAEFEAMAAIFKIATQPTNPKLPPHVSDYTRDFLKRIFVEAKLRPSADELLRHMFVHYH

T3 sequence (P78362 whole entry): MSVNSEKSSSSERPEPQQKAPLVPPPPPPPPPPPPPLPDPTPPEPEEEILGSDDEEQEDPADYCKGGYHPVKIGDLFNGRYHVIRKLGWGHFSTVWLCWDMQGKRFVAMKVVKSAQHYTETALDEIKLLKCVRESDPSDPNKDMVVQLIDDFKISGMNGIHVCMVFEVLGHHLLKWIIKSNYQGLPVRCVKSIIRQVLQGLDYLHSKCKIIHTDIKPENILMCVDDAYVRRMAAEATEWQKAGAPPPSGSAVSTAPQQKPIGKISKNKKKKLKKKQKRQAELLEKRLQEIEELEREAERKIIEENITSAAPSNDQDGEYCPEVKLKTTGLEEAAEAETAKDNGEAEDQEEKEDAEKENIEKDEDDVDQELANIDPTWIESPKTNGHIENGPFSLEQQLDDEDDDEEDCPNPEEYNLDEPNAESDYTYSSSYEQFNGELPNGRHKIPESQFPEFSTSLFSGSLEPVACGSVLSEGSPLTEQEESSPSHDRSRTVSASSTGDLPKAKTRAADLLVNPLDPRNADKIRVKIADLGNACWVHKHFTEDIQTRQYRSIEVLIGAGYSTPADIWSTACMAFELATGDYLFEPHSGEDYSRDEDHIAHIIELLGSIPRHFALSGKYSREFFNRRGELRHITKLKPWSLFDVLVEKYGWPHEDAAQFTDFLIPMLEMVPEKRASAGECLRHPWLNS
T4 sequence (Q16539 whole entry): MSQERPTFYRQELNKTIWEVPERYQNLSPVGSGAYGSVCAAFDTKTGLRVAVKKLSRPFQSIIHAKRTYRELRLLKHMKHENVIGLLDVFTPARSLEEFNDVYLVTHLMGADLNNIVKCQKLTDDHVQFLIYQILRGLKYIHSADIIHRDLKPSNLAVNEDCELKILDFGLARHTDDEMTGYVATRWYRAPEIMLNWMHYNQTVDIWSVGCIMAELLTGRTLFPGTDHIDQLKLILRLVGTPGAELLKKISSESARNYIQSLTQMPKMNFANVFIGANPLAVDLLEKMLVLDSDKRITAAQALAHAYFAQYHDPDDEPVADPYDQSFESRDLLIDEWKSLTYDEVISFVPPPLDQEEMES
T1 sequence (P41279 whole entry): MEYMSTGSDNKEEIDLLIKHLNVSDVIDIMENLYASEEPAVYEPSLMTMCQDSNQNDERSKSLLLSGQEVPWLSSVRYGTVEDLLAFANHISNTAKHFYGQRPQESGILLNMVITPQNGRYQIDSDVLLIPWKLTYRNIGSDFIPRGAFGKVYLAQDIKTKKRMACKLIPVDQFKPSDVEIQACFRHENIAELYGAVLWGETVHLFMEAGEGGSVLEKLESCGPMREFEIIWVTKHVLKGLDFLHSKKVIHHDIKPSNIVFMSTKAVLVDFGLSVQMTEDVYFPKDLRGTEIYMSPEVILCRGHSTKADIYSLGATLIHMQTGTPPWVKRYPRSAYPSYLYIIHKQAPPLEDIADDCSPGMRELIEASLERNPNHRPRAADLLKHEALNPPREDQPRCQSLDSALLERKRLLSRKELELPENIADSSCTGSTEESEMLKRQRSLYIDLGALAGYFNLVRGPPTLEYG
T5 sequence (Q8IU85 whole entry): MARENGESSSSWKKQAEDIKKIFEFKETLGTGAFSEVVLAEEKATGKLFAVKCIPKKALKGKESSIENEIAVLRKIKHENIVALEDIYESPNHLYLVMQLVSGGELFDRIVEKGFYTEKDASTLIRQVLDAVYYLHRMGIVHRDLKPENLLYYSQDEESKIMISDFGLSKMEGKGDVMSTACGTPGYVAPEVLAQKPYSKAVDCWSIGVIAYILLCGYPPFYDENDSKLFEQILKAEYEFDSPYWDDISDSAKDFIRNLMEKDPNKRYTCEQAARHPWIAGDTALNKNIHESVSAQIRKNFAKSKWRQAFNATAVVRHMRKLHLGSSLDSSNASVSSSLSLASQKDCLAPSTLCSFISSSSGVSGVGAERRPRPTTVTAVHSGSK

CNC(=O)c1ccc2c(c1)C(=O)c1ccc(Nc3ccc(F)c(NC(=O)C4CC4)c3)cc1CC2 [Compound 2015]
remaining activity at 0.2 µM (340 wild-type kinases [1]; 0.2 µM 2015, read-out: COT residual activity): 98.6%
remaining activity at 1 µM (340 wild-type kinases [1]; 1 µM 2015, read-out: COT residual activity): 97.4%
remaining activity at 0.2 µM (340 wild-type kinases [1]; COT, 0.2 µM, read-out: residual activity): 98.6%
remaining activity at 1 µM (340 wild-type kinases [1]; COT, 1 µM, read-out: residual activity): 97.4%
remaining activity at 0.2 µM (340 wild-type kinases [2]; 0.2 µM 2015, read-out: p38gamma residual activity): 83.5%
remaining activity at 1 µM (340 wild-type kinases [2]; 1 µM 2015, read-out: p38gamma residual activity): 77.7%
remaining activity at 0.2 µM (340 wild-type kinases [2]; p38gamma, 0.2 µM, read-out: residual activity): 83.5%
remaining activity at 1 µM (340 wild-type kinases [2]; p38gamma, 1 µM, read-out: residual activity): 77.7%
remaining activity at 0.2 µM (340 wild-type kinases [3]; 0.2 µM 2015, read-out: SRPK2 residual activity): 89.5%
remaining activity at 1 µM (340 wild-type kinases [3]; 1 µM 2015, read-out: SRPK2 residual activity): 91.2%
remaining activity at 0.2 µM (340 wild-type kinases [3]; SRPK2, 0.2 µM, read-out: residual activity): 89.5%
remaining activity at 1 µM (340 wild-type kinases [3]; SRPK2, 1 µM, read-out: residual activity): 91.2%
remaining activity at 0.2 µM (340 wild-type kinases [4]; 0.2 µM 2015, read-out: p38alpha residual activity): 5.35%
remaining activity at 1 µM (340 wild-type kinases [4]; 1 µM 2015, read-out: p38alpha residual activity): 1.8%
remaining activity at 0.2 µM (340 wild-type kinases [4]; p38alpha, 0.2 µM, read-out: residual activity): 5.35%
remaining activity at 1 µM (340 wild-type kinases [4]; p38alpha, 1 µM, read-out: residual activity): 1.8%
remaining activity at 0.2 µM (340 wild-type kinases [5]; 0.2 µM 2015, read-out: CAMK1D residual activity): 100%
remaining activity at 1 µM (340 wild-type kinases [5]; 1 µM 2015, read-out: CAMK1D residual activity): 90.6%
remaining activity at 0.2 µM (340 wild-type kinases [5]; CAMK1D, 0.2 µM, read-out: residual activity): 100%
remaining activity at 1 µM (340 wild-type kinases [5]; CAMK1D, 1 µM, read-out: residual activity): 90.6%
remaining activity at 0.2 µM (340 wild-type kinases [6]; 0.2 µM 2015, read-out: BRSK2 residual activity): 103%
remaining activity at 1 µM (340 wild-type kinases [6]; 1 µM 2015, read-out: BRSK2 residual activity): 101%
remaining activity at 0.2 µM (340 wild-type kinases [6]; BRSK2, 0.2 µM, read-out: residual activity): 103%
remaining activity at 1 µM (340 wild-type kinases [6]; BRSK2, 1 µM, read-out: residual activity): 101%
remaining activity at 0.2 µM (340 wild-type kinases [7]; 0.2 µM 2015, read-out: AuroraC residual activity): 88.5%
remaining activity at 1 µM (340 wild-type kinases [7]; 1 µM 2015, read-out: AuroraC residual activity): 96.3%
remaining activity at 0.2 µM (340 wild-type kinases [7]; AuroraC, 0.2 µM, read-out: residual activity): 88.5%
remaining activity at 1 µM (340 wild-type kinases [7]; AuroraC, 1 µM, read-out: residual activity): 96.3%
remaining activity at 0.2 µM (340 wild-type kinases [8]; 0.2 µM 2015, read-out: MEKK2 residual activity): 96.7%
remaining activity at 1 µM (340 wild-type kinases [8]; 1 µM 2015, read-out: MEKK2 residual activity): 95.1%
remaining activity at 0.2 µM (340 wild-type kinases [8]; MEKK2, 0.2 µM, read-out: residual activity): 96.7%
remaining activity at 1 µM (340 wild-type kinases [8]; MEKK2, 1 µM, read-out: residual activity): 95.1%
